Data taken from US9732032B2, “3-aminocyclopentane carboxamide derivatives” (Merck Patent GmbH, priority 2012, dated 2017).

The compounds below were run against T1, human recombinant full-length fatty acid synthase (FASN) (Homo sapiens, UniProt P49327) (assay: Biochemical activity testing of human fatty acid synthase FASN (NADPH fluorescence intensity assay)). Details: NADPH fluorescence decrease (ex 340 nm / em 460 nm), 30 minutes at room temperature, read-out: IC50 FASN (enzyme assay).
T1 construct: human recombinant full-length fatty acid synthase; made in house; host or cells: SF9 cells
T1 sequence (P49327 whole entry): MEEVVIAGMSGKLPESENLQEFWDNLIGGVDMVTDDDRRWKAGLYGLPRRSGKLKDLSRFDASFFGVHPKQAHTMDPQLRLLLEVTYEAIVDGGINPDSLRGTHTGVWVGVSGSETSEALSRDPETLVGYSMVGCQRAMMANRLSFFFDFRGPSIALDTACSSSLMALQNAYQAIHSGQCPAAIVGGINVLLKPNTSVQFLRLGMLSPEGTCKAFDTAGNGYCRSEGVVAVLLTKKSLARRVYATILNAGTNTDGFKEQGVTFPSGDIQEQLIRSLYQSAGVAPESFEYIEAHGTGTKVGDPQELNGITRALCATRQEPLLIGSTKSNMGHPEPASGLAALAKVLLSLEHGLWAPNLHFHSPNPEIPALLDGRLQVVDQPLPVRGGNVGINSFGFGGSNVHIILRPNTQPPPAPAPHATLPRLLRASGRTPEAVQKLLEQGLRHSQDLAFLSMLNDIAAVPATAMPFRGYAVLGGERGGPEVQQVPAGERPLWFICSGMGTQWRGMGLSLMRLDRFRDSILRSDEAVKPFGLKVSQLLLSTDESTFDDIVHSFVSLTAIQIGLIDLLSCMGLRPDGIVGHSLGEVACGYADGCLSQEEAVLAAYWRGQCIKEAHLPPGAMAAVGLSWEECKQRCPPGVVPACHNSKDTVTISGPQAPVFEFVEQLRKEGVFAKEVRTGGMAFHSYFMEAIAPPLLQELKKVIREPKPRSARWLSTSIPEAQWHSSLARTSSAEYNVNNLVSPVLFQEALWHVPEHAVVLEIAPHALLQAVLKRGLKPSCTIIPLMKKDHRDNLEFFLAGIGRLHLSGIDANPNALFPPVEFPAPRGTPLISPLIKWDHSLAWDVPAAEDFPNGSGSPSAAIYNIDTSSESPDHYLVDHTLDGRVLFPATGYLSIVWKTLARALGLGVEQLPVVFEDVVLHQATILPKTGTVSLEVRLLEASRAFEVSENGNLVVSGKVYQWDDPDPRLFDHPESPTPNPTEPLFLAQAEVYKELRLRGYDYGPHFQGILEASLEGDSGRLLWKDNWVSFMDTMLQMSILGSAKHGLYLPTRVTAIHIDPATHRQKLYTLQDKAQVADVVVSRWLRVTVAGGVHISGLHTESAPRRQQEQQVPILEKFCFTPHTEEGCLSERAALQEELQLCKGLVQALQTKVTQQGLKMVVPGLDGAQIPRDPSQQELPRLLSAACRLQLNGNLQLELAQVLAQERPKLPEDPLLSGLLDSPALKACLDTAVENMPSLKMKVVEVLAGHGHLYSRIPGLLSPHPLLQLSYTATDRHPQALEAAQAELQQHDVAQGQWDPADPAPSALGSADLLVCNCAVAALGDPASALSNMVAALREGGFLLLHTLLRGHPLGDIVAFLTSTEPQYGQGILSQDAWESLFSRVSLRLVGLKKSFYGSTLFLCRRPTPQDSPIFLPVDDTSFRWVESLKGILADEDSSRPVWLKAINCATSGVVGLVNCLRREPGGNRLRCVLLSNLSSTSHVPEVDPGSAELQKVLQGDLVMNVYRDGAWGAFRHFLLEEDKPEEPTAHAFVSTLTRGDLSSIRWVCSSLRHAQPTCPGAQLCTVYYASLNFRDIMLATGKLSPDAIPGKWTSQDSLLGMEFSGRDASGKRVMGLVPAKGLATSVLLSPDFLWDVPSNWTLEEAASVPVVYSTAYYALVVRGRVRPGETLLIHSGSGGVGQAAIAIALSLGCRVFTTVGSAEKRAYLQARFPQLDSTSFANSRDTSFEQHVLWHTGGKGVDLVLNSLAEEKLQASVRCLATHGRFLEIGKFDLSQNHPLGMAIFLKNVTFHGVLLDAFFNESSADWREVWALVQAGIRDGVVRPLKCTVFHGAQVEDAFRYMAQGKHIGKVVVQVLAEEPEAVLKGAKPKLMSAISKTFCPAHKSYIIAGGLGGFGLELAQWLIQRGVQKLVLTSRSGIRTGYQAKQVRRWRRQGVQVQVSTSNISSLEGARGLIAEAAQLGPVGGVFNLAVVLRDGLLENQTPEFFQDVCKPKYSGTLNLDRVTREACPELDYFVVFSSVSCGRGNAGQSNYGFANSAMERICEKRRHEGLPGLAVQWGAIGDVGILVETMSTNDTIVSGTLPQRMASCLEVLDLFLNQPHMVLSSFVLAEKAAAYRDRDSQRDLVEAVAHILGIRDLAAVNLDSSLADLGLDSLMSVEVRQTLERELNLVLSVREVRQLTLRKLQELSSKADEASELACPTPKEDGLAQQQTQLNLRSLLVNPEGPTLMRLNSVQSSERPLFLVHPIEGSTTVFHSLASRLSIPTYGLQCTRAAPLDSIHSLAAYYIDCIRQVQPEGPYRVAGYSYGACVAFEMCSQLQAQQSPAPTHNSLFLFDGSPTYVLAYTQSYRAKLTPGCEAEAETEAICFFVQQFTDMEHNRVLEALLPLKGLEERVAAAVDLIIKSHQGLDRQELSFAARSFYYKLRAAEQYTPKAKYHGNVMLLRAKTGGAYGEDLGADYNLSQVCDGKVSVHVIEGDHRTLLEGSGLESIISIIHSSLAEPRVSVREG
Description: aq (aqueous), h (hour), g (gram), L (liter), mg (milligram), MHz (Megahertz), (melting point), eq (equivalent), mL (milliliter), L (microliter), ACN (acetonitrile), AcOH (acetic acid), CDCl3 (deuterated chloroform), CD3OD (deuterated methanol), CH3CN (acetonitrile), c-hex (cyclohexane), DCC (dicyclohexyl carbodiimide), DCM (dichloromethane), DIC (diisopropyl carbodiimide), DIEA (diisopropylethyl-amine), DMF (dimethylformamide), DMSO (dimethylsulfoxide), DMSO-d6 (deuterated dimethylsulfoxide), EDC (1-(3-dimethyl-amino-propyl)-3-ethylcarbodiimide), ESI (Electro-spray ionization), EtOAc (ethyl acetate), Et2O (diethyl ether), EtOH (ethanol), HATU (dimethylamino-([1,2,3]triazolo[4,5-b]pyridin-3-yloxy)-methylene]-dimethylammonium hexafluorophosphate), HPLC (High Performance Liquid Chromatography), i-PrOH (2-propanol), K2CO3 (potassium carbonate), LC (Liquid Chromatography), MeOH (methanol), MgSO4 (magnesium sulfate), MS (mass spectrometry), MTBE (Methyl tert-butyl ether), NaHCO3 (sodium bicarbonate), NaBH4 (sodium borohydride), NMM (N-methyl morpholine), NMR (Nuclear Magnetic Resonance), PyBOP (benzotriazole-1-yl-oxy-trispyrrolidino-phosphonium hexafluorophosphate), RT (room temperature), Rt (retention time), SPE (solid phase extraction), TBTU (2-(1-H-benzotriazole-1-yl)-1,1,3,3-tetramethyluromium tetrafluoro borate), TEA (triethylamine), TFA (trifluoroacetic acid), THF (tetrahydrofuran), TLC (Thin Layer Chromatography), UV (Ultraviolet). Description of the In Vitro Assays Abbreviations: GST=Glutathione-S-transferase FRET=Fluorescence resonance energy transfer HTRF®=(homogenous time resolved fluorescence) HEPES=4-(2-hydroxyethyl)-1-piperazine ethanesulfonic acid buffer DTT=Dithiothreitol BSA=bovine serum albumin CHAPS=detergent; CHAPS=3[(3-cholamidopropyl)dimethylammonio]-1-propanesulfonate Biochemical Activity Testing of Human Fatty Acid Synthase FASN
Fatty acid synthase FASN is a multifunctional enzyme with seven catalytic activities thereby synthesising long chain fatty acids especially palmitoyl-CoA in the presence of co-factor NADPH starting from the substrates acetyl-CoA and malonyl-CoA. The reductive synthesis is realized by the oxidation of NADPH to NADP. Since NADPH has a high fluorescence intensity quantum yield compared to NADP with excitation at 340 nm and emission at 460 nm, the reaction can be monitored via the decrease in fluorescence intensity. The biochemical FASN activity testing was performed as 384 well two-time-point kinetic fluorescence intensity assay format in Greiner low volume medium binding 384-well black microtiter plates in a total assay volume of 8 μl and was used for high throughput screen. In each well 3 μl 40 nM human recombinant full-length fatty acid synthase (produced in-house in SF9 cells) were dispensed in the following assay buffer: 50 mM potassium phosphate buffer pH 7.0, 0.005% (w/v) BSA, 2 mM Glutathione, 0.02% Tween-20. Then 2 μl of 200 μM NADPH in assay buffer were added, followed by the addition of the test compounds in 10 dilution concentrations starting with 30 μM (final concentration) to get a final DMSO content of 1% (v/v). The mixture was incubated for at least 15 min at room temperature. After the pre-incubation the enzymatic reaction was started by the addition of 2 μl substrate solution (80 μM acetyl-CoA, 240 μM malonyl-CoA). A first fluorescence intensity measurement (time point one) was performed with an Envision multimode reader (Perkin Elmer LAS Germany GmbH) at excitation wavelength 340 nm (lamp mode) and emission wavelength 460 nm. The reaction was incubated for 30 minutes at room temperature. After this the fluorescence intensity was measured again in the Envision using the same parameters as described above (second time point measurement). The data were analysed by subtracting the first time point measurement value from the second time point measurement value (after the enzymatic reaction). The differences of the emission signals were determined. […]

SMILES	IC50
CN(C(=O)c1ccc(-c2nc3ccccc3o2)cc1)[C@@H]1CC[C@H](C(=O)NCCO)C1 [Compound A106, 4-benzoxazol-2-yl-N-[(1R,3S)-3-(2-hydroxy-ethylcarbamoyl)-cyclopentyl]-N-methyl-benzamide]	< 300 nM
CCNC(=O)[C@H]1CC[C@@H](N(C)C(=O)c2ccc(C#Cc3ccc(Cl)cc3)cc2)C1 [Compound A54, 4-(4-chloro-phenylethynyl)-N-((1R,3S)-3-ethylcarbamoyl-cyclopentyl)-N-methyl-benzamide]	< 300 nM
COC[C@H](C)NC(=O)[C@H]1CC[C@@H](N(C)C(=O)c2ccc(-c3nc4ccccc4o3)cc2)C1 [Compound A92, 4-benzoxazol-2-yl-N-[(1R,3S)-3-((S)-2-methoxy-1-methyl-ethylcarbamoyl)-cyclopentyl]-N-methyl-benzamide]	300 to 3000 nM
CCNC(=O)[C@H]1CC[C@@H](N(C)C(=O)c2ccc(-c3ccccc3S(C)(=O)=O)cc2)C1 [Compound A59, 2′-methanesulfonyl-biphenyl-4-carboxylic acid ((1R,3S)-3-ethylcarbamoyl-cyclopentyl)-methyl-amide]	< 300 nM
CCNC(=O)[C@H]1CC[C@@H](N(C)C(=O)c2ccc(-c3ccncc3)cc2F)C1 [Compound A57, N-((1R,3S)-3-ethylcarbamoyl-cyclopentyl)-2-fluoro-N-methyl-4-pyridin-4-yl-benzamide]	< 300 nM
C[C@H](CO)NC(=O)[C@H]1CC[C@@H](N(C)C(=O)c2ccc(-c3nc4ccccc4o3)cc2)C1 [Compound A91, 4-benzoxazol-2-yl-N-[(1R,3S)-3-((R)-2-hydroxy-1-methyl-ethylcarbamoyl)-cyclopentyl]-N-methyl-benzamide]	< 300 nM
CCNC(=O)[C@H]1CC[C@@H](N(C)C(=O)c2ccc(-c3ccc(F)cc3F)cc2)C1 [Compound A63, 2′,4′-difluoro-biphenyl-4-carboxylic acid ((1R,3S)-3-ethylcarbamoyl-cyclopentyl)-methyl-amide]	< 300 nM
CCNC(=O)[C@H]1CC[C@@H](N(C)C(=O)c2ccc(-c3cccc4[nH]ncc34)cc2)C1 [Compound A107, N-((1R,3S)-3-ethylcarbamoyl-cyclopentyl)-4-(1H-indazol-4-yl)-N-methyl-benzamide]	< 300 nM
CN(C(=O)c1ccc(-c2cccnc2)cc1)[C@@H]1CC[C@H](C(=O)NC2(C)CC2)C1 [Compound A83, N-methyl-N-[(1R,3S)-3-(1-methyl-cyclopropylcarbamoyl)-cyclopentyl]-4-pyridin-3-yl-benzamide]	< 300 nM
CCNC(=O)[C@H]1CC[C@@H](N(C)C(=O)c2ccc(-c3nc4ccccc4o3)cc2OC)C1 [Compound A46, 4-benzoxazol-2-yl-N-((1R,3S)-3-ethylcarbamoyl-cyclopentyl)-2-methoxy-N-methyl-benzamide]	< 300 nM
CCNC(=O)[C@H]1CC[C@@H](N(C)C(=O)c2ccc(C#Cc3ccncc3)cc2)C1 [Compound A70, N-((1R,3S)-3-ethylcarbamoyl-cyclopentyl)-N-methyl-4-pyridin-4-ylethynyl-benzamide]	< 300 nM
CCNC(=O)[C@H]1CC[C@@H](N(C)C(=O)c2ccc(C#Cc3ccc(OC)cc3)cc2)C1 [Compound A69, N-((1R,3S)-3-ethylcarbamoyl-cyclopentyl)-4-(4-methoxy-phenylethynyl)-N-methyl-benzamide]	< 300 nM
CCNC(=O)[C@H]1CC[C@@H](N(C)C(=O)c2ccc(-c3ccccc3)cc2Cl)C1 [Compound A51, 3-chloro-biphenyl-4-carboxylic acid ((1R,3S)-3-ethylcarbamoyl-cyclopentyl)-methyl-amide]	< 300 nM
CN(C(=O)c1ccc(-c2ccc(C#N)cc2)cc1)[C@@H]1CC[C@H](C(=O)NC2(C)CC2)C1 [Compound A81, 4-(4-cyanophenyl)-N-methyl-N-[(1R,3S)-3-[(1-methylcyclopropyl)-carbamoyl]cyclopentyl]benzamide]	< 300 nM
CN(C(=O)c1ccc(-c2nc3ccccc3o2)cc1)[C@@H]1CC[C@H](C(=O)NC(C)(C)CO)C1 [Compound A99, 4-benzoxazol-2-yl-N-[(1R,3S)-3-(2-hydroxy-1,1-dimethyl-ethylcarbamoyl)-cyclopentyl]-N-methyl-benzamide]	300 to 3000 nM
CCNC(=O)[C@H]1CC[C@@H](N(C)C(=O)c2ccc(-c3nc4ccc(F)cc4o3)cc2)C1 [Compound A98, N-((1R,3S)-3-ethylcarbamoyl-cyclopentyl)-4-(6-fluoro-benzooxazol-2-yl)-N-methyl-benzamide]	< 300 nM
C[C@@H](CO)NC(=O)[C@H]1CC[C@@H](N(C)C(=O)c2ccc(-c3nc4ccccc4o3)cc2)C1 [Compound A90, 4-benzoxazol-2-yl-N-[(1R,3S)-3-((S)-2-hydroxy-1-methyl-ethylcarbamoyl)-cyclopentyl]-N-methyl-benzamide]	300 to 3000 nM
COc1cc(C(=O)N(C)[C@@H]2CC[C@H](C(=O)NC3(C)CC3)C2)ccc1-c1nc2ccccc2o1 [Compound A85, 4-benzoxazol-2-yl-3-methoxy-N-methyl-N-[(1R,3S)-3-(1-methyl-cyclopropylcarbamoyl)-cyclopentyl]-benzamide]	< 300 nM
CCNC(=O)[C@H]1CC[C@@H](N(C)C(=O)c2ccc(-c3nc4ccccc4o3)cc2)C1 [Compound A1, 4-(1,3-benzoxazol-2-yl)-N-[(1R,3S)-3-(ethylcarbamoyl)cyclopentyl]-N-methyl-benzamide]	< 300 nM
CCNC(=O)[C@H]1CC[C@@H](N(C)C(=O)c2ccc(-c3nc4ccccc4n3C)cc2)C1 [Compound A2, N-((1R,3S)-3-ethylcarbamoyl-cyclopentyl)-N-methyl-4-(1-methyl-1H-benzoimidazol-2-yl)-benzamide]	< 300 nM
CN(C(=O)c1ccc(-c2nc3ccccc3s2)cc1)[C@@H]1CC[C@H](C(=O)NC2(C)CC2)C1 [Compound A71, 4-benzothiazol-2-yl-N-methyl-N-[(1R,3S)-3-(1-methyl-cyclopropylcarbamoyl)-cyclopentyl]-benzamide]	< 300 nM
CCNC(=O)[C@H]1CC[C@@H](N(C)C(=O)c2ccc(-c3ccc(Cl)cc3)cc2)C1 [Compound A62, 4′-chloro-biphenyl-4-carboxylic acid ((1R,3S)-3-ethylcarbamoyl-cyclopentyl)-methyl-amide]	< 300 nM
CCNC(=O)[C@@H]1CC[C@@H](N(C)C(=O)c2ccc(-c3nc4ccccc4o3)cc2)C1 [Compound A44, 4-(1,3-benzoxazol-2-yl)-N-[(1R,3R)-3-(ethylcarbamoyl)cyclopentyl]-N-methyl-benzamide]	< 300 nM
CN(C(=O)c1ccc(C#Cc2ccc(F)cc2)cc1)[C@@H]1CC[C@H](C(=O)NC2(C)CC2)C1 [Compound A72, 4-(4-fluoro-phenylethynyl)-N-methyl-N-[(1R,3S)-3-(1-methyl-cyclopropylcarbamoyl)-cyclopentyl]-benzamide]	< 300 nM
CCNC(=O)[C@H]1CC[C@@H](N(C)C(=O)c2ccc(-c3ccccc3)cc2)C1 [Compound A50, biphenyl-4-carboxylic acid ((1R,3S)-3-ethylcarbamoyl-cyclopentyl)-methyl-amide]	< 300 nM
CCNC(=O)[C@H]1CC[C@@H](N(C)C(=O)c2ccc(-c3nc4cc(F)c(F)cc4o3)cc2)C1 [Compound A101, 4-(5,6-difluoro-benzoxazol-2-yl)-N-((1R,3S)-3-ethylcarbamoyl-cyclopentyl)-N-methyl-benzamide]	< 300 nM
